Experimental findings from US20250228239A1, “MOLECULES HAVING PESTICIDAL UTILITY, AND INTERMEDIATES, COMPOSITIONS, AND PROCESSES, RELATED THERETO” (priority 2024, published 2025) are described below.

The term mortality denotes the percentage killed.

Holding throughout (format): in vivo
Series [1] deals with Cabbage Looper (Trichoplusia ni, TRIPNI). Description: Bioassays on Cabbage Looper (CL), 128-well diet tray assay. The following applies: Trichoplusia ni; for mortality at 50 µg/cm2: 168 h, second instar larvae, 50 μg/cm^2 of test molecule on artificial diet, 25° C., five to seven days, average of eight wells, read-out: CL % Control (or Mortality) rating. In a few lines: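 Test molecule was dissolved in 90:10 acetone-water, applied to artificial diet at 50 μg/cm^2 and allowed to dry. Second-instar larvae were then added, one to five per well, and trays held at 25° C for five to seven days before mortality was scored and averaged.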

The test system of series [2] is Yellow Fever Mosquito (Aedes aegypti, AEDSAE). The following applies: for YFM rating: Table ABC / ABC-DP rating; for YFM % Control (or Mortality) rating: about 1 day-old larvae, 4000 ppm master solution diluted with 90:10 water/acetone, 15 μL per well plus 220 μL larval mixture, 3 days. In a few lines:
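Mortality after 3 days at room temperature is the read-out, scored well by well and converted to a rating. Test molecules came from 4000 ppm stocks in DMSO, further diluted in 90:10 water/acetone, and were exposed to roughly 1-day-old larvae suspended in liver-powder water.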

The subject of series [3] is Beet Armyworm (Spodoptera exigua, LAPHEG). Description: Bioassays on Beet Armyworm (BAW), 128-well diet tray assay. The following applies: Spodoptera exigua; for mortality at 50 µg/cm2: 168 h, second instar larvae, 50 μg/cm^2 of test molecule on artificial diet, 25° C., five to seven days, average of eight wells, read-out: BAW % Control (or Mortality) rating. In a few lines: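 Mortality of second-instar larvae (1–5/well) on artificial diet treated with 50 μg/cm^2 compound, read after 5–7 days at 25° C.; values are means of eight wells.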

[4] abbreviates: Cabbage Looper, rating class, read-out: CL.
The mark [5] stands for this setting: Yellow Fever Mosquito, rating class.
Setting [6] is: Beet Armyworm, rating class, read-out: BAW.
The mark [7] stands for this setting: Cabbage Looper, Table ABC / ABC-DP rating, read-out: CL rating.
The mark [8] stands for this setting: Beet Armyworm, Table ABC / ABC-DP rating, read-out: BAW rating.

Read-outs that look alike come from different tables or passages of the source.

Turning to `O=C(Nc1c(F)ccc(NC(=O)c2cc(NC(=O)[C@H]3[C@H](c4ccc(Cl)c(Cl)c4)C3(Cl)Cl)ccc2Cl)c1F)c1ccno1` [F1671, N-(3-(2-Chloro-5-((1R,3R)-2,2-dichloro-3-(3,4-dichlorophenyl)cyclopropane-1-carboxamido)benzamido)-2,6-difluorophenyl)isoxazole-5-carboxamide], the pest or weed control at 50 µg/cm2 in series [1] (setting [4]) and in series [3] (setting [6]) was 50 to 100% each time. The YFM result in series [2] (setting [5]) was “B (More than 0 – Less than 80)”.

On to `O=C(Nc1c(F)ccc(NC(=O)C(F)(F)F)c1F)c1cc(NC(=O)[C@H]2[C@H](c3ccc(F)c(C(F)(F)F)c3)C2(Cl)Cl)ccc1F` [F1560, 5-((1R,3R)-2,2-Dichloro-3-(4-fluoro-3-(trifluoromethyl)phenyl)cyclopropane-1-carboxamido)-N-(2,6-difluoro-3-(2,2,2-trifluoroacetamido)phenyl)-2-fluorobenzamide], for which the pest or weed control at 50 µg/cm2 in series [1] (setting [4]) and in series [3] (setting [6]) was 50 to 100% throughout. Moreover, the YFM entry in series [2] (setting [5]) is given as “A (80–100)”.

Take `O=C(Nc1cc(F)c(F)c(Br)c1)c1cc(NC(=O)[C@H]2[C@H](c3cc(Cl)cc(Cl)c3)C2(Cl)Cl)ccc1Cl` (relative stereo) [DP11, trans-N-(3-Bromo-4,5-difluorophenyl)-2-chloro-5-(2,2-dichloro-3-(3,5-dichlorophenyl)cyclopropane-1-carboxamido)benzamide]: the mortality at 50 µg/cm2 in series [1] and in series [3] was 50 to 100% each time. For the same compound, the pest or weed control at 50 µg/cm2 in series [1] (setting [7]) and in series [3] (setting [8]) was 50 to 100% throughout. For the same compound, the YFM rating entry in series [2] (Yellow Fever Mosquito) is given as “A (80–100)”. Besides, the “YFM % Control (or Mortality) rating” value in series [2] was “A (80–100)”.

For the compound `O=C(NN=Cc1ccccc1)c1cc(NC(=O)C2C(c3cc(Cl)cc(Cl)c3)C2(Cl)Cl)ccc1Cl` (stereo not drawn) [F3001, trans-N-(3-(2-Benzylidenehydrazine-1-carbonyl)-4-chiorophenyl)-2,2-dichloro-3-(3,5-dichlorophenyl)cyclopropane-1-carboxamide], the mortality at 50 µg/cm2 in series [1] and in series [3] was 50 to 100% in each case. The pest or weed control at 50 µg/cm2 in series [1] (setting [7]) and in series [3] (setting [8]) was 50 to 100% each time. Further, the YFM rating entry in series [2] (Yellow Fever Mosquito) is reported as “A (80–100)”. The “YFM % Control (or Mortality) rating” value in series [2] is given as “A (80–100)”.

With `CN(C(=O)C(F)F)c1c(F)ccc(NC(=O)c2cc(NC(=O)[C@H]3[C@H](c4ccc(Cl)c(Cl)c4)C3(Cl)Cl)ccc2Cl)c1F` [F1271, 2-Chloro-5-((1R,3R)-2,2-dichloro-3-(3,4-dichlorophenyl)cyclopropane-1-carboxamido)-N-(3-(2,2-difluoro-N-methylacetamido)-2,4-difluorophenyl)benzamide], the pest or weed control at 50 µg/cm2 in series [1] (Table ABC: Biological Results, species CL, read-out: CL) fell in the range of 50 to 100%; in series [3] (Table ABC: Biological Results, species BAW, read-out: BAW), 50 to 100%. Moreover, in series [2] (Table ABC: Biological Results, species YFM), the YFM entry was “A (80–100)”.

On to `CC(OCC(F)(F)F)C(=O)Nc1c(F)ccc(NC(=O)c2cc(NC(=O)[C@H]3[C@H](c4ccc(F)c(C(F)(F)F)c4)C3(Cl)Cl)ccc2Cl)c1F` (stereo partly drawn) [F1747, 2-Chloro-5-((1R,3R)-2,2-dichloro-3-(4-fluoro-3-(trifluoromethyl)phenyl)cyclopropane-1-carboxamido)-N-(2,4-difluoro-3-(2-(2,2,2-trifluoroethoxy)propanamido)phenyl)benzamide], for which the pest or weed control at 50 µg/cm2 in series [1] (setting [4]) and in series [3] (setting [6]) was 50 to 100% each time. Moreover, the YFM result in series [2] (setting [5]) is given as “A (80–100)”.

`O=C(NCC(F)(F)C(F)(F)F)c1c(Cl)ccc(NC(=O)[C@H]2[C@H](c3ccc(F)c(Cl)c3)C2(Cl)Cl)c1Cl` (relative stereo) [F2005, trans-2,6-Dichloro-3-(2,2-dichloro-3-(3-chloro-4-fluorophenyl)cyclopropane-1-carboxamido)-N-(2,2,3,3,3-pentafluoropropyl)benzamide]: the pest or weed control at 50 µg/cm2 in series [1] (setting [7]) and in series [3] (setting [8]) was 50 to 100% throughout. In addition, the YFM rating entry in series [2] (Yellow Fever Mosquito) is reported as “A (80–100)”.
